The numbers were not newly measured in US20170119704A1, “TREATMENT OF COGNITIVE IMPAIRMENT” (Ovid Therapeutics Inc., priority 2015, published 2017), which cites them from elsewhere.

For this series the following is noted: in vivo.

Take `CN(C)CCO/N=C(/C=C/c1ccc(O)cc1)c1ccccc1F` [Eplivanserin, (1Z,2E)-1-(2-fluorophenyl)-3-(4-hydroxyphenyl)-prop-2-en-1-one-O-(2-dimethylaminoethyl)-oxime]: the “absorption (well absorbed)” value is listed as over 70%.
